{
  "source": "patent US20200171001A1",
  "about": "“COMBINATION THERAPY WITH 2,3-DIHYDRO-ISOINDOLE-1-ONE COMPOUNDS AND METHODS FOR TREATING PATIENTS WITH VARIOUS MUTATIONS” (Aptose Biosciences Inc., priority 2018, published 2020)",
  "key": {"[1]": {"tested_on": "B-cell malignant cell lines (e.g. AML cell lines)", "experiment": "Potency against B-cell malignant cell lines compared with conventional IDH1 therapeutic agents", "format": "cell-based"}, "[2]": {"tested_on": "malignant bone marrow or peripheral blood cells from AML patients", "experiment": "Ex vivo drug sensitivity (MTS cell viability, IC50 and AUC) on freshly isolated primary AML patient samples, association with somatic mutations", "format": "cell-based, human", "details": "for Sensitivity of patient samples with FLT3-ITD mutations as compared to wild-type: AML patient samples with FLT3-ITD mutations vs WT, n=118 patients; for Sensitivity of patient samples with FLT3-ITD mutations as compared to wild-type / Sensitivity of patient samples with IDH1 mutants relative to WT: FIG. 1, FIG. 2; for Sensitivity of patient samples with IDH1 mutants relative to WT: AML patient samples with IDH1 mutations vs WT; for Effectiveness (AUC of drug sensitivity) against ASXL1 mutant cells compared with wild type: ASXL1 mutant vs wild type AML cells, FIG. 5; for Effectiveness (AUC of drug sensitivity) against SRSF2 mutant cells compared with wild type: SRSF2 mutant vs wild type AML cells", "procedure": "For Genomics Analysis examples 2-4 below, studies were performed according to published procedures [Tyner, J. W., Tognon, C. E., Bottomly, D. et al. Functional genomic landscape of acute myeloid leukaemia. Nature 562, 526-531 (2018) doi:10.1038/s41586-018-0623-z; Kurtz, S. E., Eide, C. […] PNAS Sep. 5, 2017 114 (36) 7554-7563], which are incorporated by reference in their entirety herein.\nAll patient samples were analyzed for clinical characteristics and drug sensitivity. AML, CLL, ALL and MDS/MPN and other patient samples were analyzed with respect to expanded, disease-specific panels of clinical, prognostic, genetic, cytogenetic, and surface antigen characteristics obtained from patient electronic medical records. Genetic characterization of AML samples included results of a clinical deep-sequencing panel of genes commonly mutated in hematologic malignancies (GeneTrails panel from Knight Diagnostic Laboratories, OHSU; Foundation Medicine reports from UT Southwestern).\nCompound 7 and/or venetoclax were prepared in a well in a seven-point concentration series. Similar plates were prepared with the 48 indicated pairwise inhibitor combinations in seven-point fixed molar concentration series identical to those used for single agents. The final concentration of DMSO was ≤0.1% in all wells, and all sets of single-agent and combination destination plates were stored at −20° C. and thawed immediately before use. Primary mononuclear cells were plated across single-agent and combination inhibitor panels within 24 h of collection. Cells were seeded into assay plates at 10,000 cells per well in RPMI 1640 media supplemented with FBS (10%), L-glutamine, penicillin/streptomycin, and β-mercaptoethanol (10^−4 M). After 3 d of culture at 37° C. in 5% CO2, MTS reagent (CellTiter96 AQueous One; Promega) was added, optical density was measured at 490 nm, and raw absorbance values were adjusted to a reference blank value and then used to determine cell viability (normalized to untreated control wells).\nNormalized viability values at each dose of a seven-point dilution series for Compound 7, venetoclax or combinations of the two compounds were analyzed for each of numerous primary leukemia samples. Dose concentrations were log 10-transformed, and a probit regression curve was fit to each seven-point drug sensitivity profile by using maximum-likelihood estimation for the intercept and slope. This parametric model was chosen over a polynomial because the probit's monotonic shape reflects a dose-response curve typically seen in samples incubated with cytotoxic or inhibitory agents. Normalized viability values greater than 100%, indicating higher cell viability than the average viability across control wells on a given plate, were truncated to 100% to produce a percentage response variable amenable to probit modeling. From the fitted probit curve for each sample/drug pairing, the IC50 was defined as the lowest concentration to achieve 50% predicted viability and the AUC was computed by integration of the curve height across the tested dose range. If the predicted cell viability (i.e., probit curve height) was ≤50% at the lowest tested dose or >50% across the entire dose range, the IC50 was designated as the lowest dose or highest dose, respectively. For sensitivity profiles with 100% normalized viability at all seven dose points, the IC50 and AUC were designated as the highest tested dose and the maximum possible AUC, respectively. For sensitivity profiles with 0% viability at all seven dose points, the IC50 and AUC were designated as the lowest tested dose and a value (0.5) just below the minimum probit-derived AUC, respectively.\nGenomics analysis of Compound 7 was performed by testing the association of somatic mutations and expression data with Compound 7 response on freshly harvested malignant bone marrow or peripheral blood cells from AML patients. […]"}},
  "data": [
    {"smiles": "Cc1cnc(-c2ccc(-c3ccc(NC(=O)Nc4c(F)cc(F)cc4F)cc3F)c3c2C(=O)NC3)[nH]1", "note": "[Compound 7, 1-{3-fluoro-4-[7-(5-methyl-1H-imidazol-2-yl)-1-oxo-2,3-dihydro-1H-isoindol-4-yl]-phenyl}-3-(2,4,6-trifluorophenyl)urea]", "values": [
      {"measurement": "Potency relative to conventional IDH1 therapeutic agents (e.g., Tibsovo)", "setting": "[1]", "value": "more potent"},
      {"measurement": "Sensitivity of patient samples with FLT3-ITD mutations as compared to wild-type", "setting": "[2]", "value": "highly sensitive"},
      {"measurement": "Sensitivity of patient samples with FLT3-ITD mutations as compared to wild-type", "setting": "[2]; listed as compound 7", "value": "more sensitive"},
      {"measurement": "Sensitivity of patient samples with IDH1 R132 residue mutants relative to WT", "setting": "[2]; AML patient samples with IDH1 R132 residue mutants (n=6), on average, vs WT", "value": "significantly greater sensitivity"},
      {"measurement": "Sensitivity of patient samples with IDH1 mutants relative to WT", "setting": "[2]", "value": "highly sensitive"},
      {"measurement": "Sensitivity of patient samples with IDH1 mutants relative to WT", "setting": "[2]; listed as compound 7", "value": "greater sensitivity"},
      {"measurement": "Effectiveness (AUC of drug sensitivity) against ASXL1 mutant cells compared with wild type", "setting": "[2]; 72-hour culture", "value": "just as effective"},
      {"measurement": "Effectiveness (AUC of drug sensitivity) in AML cells with IDH mutations compared to IDH wild type", "setting": "[2]; IDH mutant vs IDH wild type AML cells, 72-hour culture, FIG. 4", "value": "substantially more effective"},
      {"measurement": "Effectiveness (AUC of drug sensitivity) against SRSF2 mutant cells compared with wild type", "setting": "[2]; 72-hour culture, FIG. 4", "value": "just as effective"},
      {"measurement": "Effectiveness (AUC of drug sensitivity) in AML cells with TP53 mutations", "setting": "[2]; TP53 mutant vs TP53 wild type AML cells, 72-hour culture, FIG. 3", "value": "retains effectiveness"},
      {"measurement": "IC50 towards killing cells in AML patient bone marrow samples with IDH1 mutations", "setting": "[2]; all patient samples with IDH1 mutations, FIG. 2", "value": "particular low"}
    ]},
    {"smiles": "CC1(COc2ccc3c(c2)ncn3-c2ccc3cccc(N4CCC(N)CC4)c3n2)COC1", "note": "[crenolanib, reference compound]", "values": [
      {"measurement": "Effectiveness (AUC of drug sensitivity) against ASXL1 mutant cells compared with wild type", "setting": "[2]; 72-hour culture", "value": "appear resistant"},
      {"measurement": "Effectiveness (AUC of drug sensitivity) against SRSF2 mutant cells compared with wild type", "setting": "[2]; 72-hour culture, FIG. 4", "value": "appear resistant"}
    ]}
  ]
}
